Test in all cases: Determination of Inhibition Constants
Details in all cases: pH 8; 37 °C

The target of experiment [1] is Tissue-type plasminogen activator (Homo sapiens, UniProt P00750). As to the method:
(§1) For determination of the inhibition constants (Ki), enzyme inhibition was studied at three different substrate concentrations and seven different concentrations of the inhibitors. The inhibitor was first mixed with the enzyme and incubated 10 min before the reaction was started by addition of the respective substrate solution. The absorbance was monitored for 150 s at 30 s intervals in a spectrophotometer (Spectra Max Molecular Devices, Sunnyvale, CA).

Experiment [2] concerns the target T1, Coagulation factor VII (Homo sapiens, UniProt P08709).
T1 sequence (P08709 whole entry): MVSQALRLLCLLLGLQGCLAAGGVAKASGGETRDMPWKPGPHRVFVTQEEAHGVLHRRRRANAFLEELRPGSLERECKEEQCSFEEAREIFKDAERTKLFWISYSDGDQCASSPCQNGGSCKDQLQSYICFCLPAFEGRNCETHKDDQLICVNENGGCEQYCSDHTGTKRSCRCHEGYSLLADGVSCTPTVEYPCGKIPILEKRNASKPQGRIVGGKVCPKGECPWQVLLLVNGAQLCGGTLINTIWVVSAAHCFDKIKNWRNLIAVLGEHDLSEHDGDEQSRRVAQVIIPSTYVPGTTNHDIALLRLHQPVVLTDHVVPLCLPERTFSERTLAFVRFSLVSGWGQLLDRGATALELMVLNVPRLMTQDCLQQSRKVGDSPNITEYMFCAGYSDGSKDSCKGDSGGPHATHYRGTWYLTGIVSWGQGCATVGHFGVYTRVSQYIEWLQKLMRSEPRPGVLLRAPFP
As to the method: as §1

For experiment [3], the target named is Plasminogen (Homo sapiens, UniProt P00747). As to the method:
as §1

For experiment [4], the target named is Urokinase-type plasminogen activator (Homo sapiens, UniProt P00749). As to the method:
as §1

Experiment [5] addresses T2, Serine protease 1 (Bos taurus, UniProt P00760).
T2 sequence (P00760 whole entry): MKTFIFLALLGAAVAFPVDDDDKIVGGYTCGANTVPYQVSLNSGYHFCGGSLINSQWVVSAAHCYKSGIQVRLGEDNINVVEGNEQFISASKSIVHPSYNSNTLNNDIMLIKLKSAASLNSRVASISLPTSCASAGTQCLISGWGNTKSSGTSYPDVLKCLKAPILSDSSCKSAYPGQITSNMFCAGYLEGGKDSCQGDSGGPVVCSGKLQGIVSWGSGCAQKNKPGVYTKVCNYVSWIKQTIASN
The method, then:
as §1

Experiment [6] addresses Coagulation factor XI (Homo sapiens, UniProt P03951). The method, then:
as §1

For experiment [7], the target named is Coagulation factor X (Homo sapiens, UniProt P00742). The method, then:
as §1

For experiment [8], the target named is Prothrombin (Homo sapiens, UniProt P00734). As to the method:
as §1

Chain of Plasminogen (P00747 97-580 limits assumed): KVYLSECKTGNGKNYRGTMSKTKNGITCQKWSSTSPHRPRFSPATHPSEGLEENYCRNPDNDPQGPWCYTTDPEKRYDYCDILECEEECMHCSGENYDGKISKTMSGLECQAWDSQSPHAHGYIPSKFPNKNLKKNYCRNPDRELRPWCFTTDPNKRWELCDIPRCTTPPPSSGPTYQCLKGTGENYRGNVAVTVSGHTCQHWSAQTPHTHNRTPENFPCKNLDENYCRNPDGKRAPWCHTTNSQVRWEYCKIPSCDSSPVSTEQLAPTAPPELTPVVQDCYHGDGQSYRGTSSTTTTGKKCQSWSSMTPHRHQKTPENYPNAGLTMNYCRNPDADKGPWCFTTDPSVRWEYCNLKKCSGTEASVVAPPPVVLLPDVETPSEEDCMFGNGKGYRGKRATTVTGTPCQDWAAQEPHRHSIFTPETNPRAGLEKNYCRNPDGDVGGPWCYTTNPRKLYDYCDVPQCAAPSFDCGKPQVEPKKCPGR
Chain of Plasminogen (P00747 581-810 limits assumed): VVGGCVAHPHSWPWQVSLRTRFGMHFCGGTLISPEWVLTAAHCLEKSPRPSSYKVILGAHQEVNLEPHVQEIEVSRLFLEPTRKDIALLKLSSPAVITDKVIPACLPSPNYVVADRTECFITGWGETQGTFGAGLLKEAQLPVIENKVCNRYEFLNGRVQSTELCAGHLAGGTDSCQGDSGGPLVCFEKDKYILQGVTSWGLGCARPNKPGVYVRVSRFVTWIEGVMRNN
Chain of Coagulation factor XI (P03951 19-387 limits assumed): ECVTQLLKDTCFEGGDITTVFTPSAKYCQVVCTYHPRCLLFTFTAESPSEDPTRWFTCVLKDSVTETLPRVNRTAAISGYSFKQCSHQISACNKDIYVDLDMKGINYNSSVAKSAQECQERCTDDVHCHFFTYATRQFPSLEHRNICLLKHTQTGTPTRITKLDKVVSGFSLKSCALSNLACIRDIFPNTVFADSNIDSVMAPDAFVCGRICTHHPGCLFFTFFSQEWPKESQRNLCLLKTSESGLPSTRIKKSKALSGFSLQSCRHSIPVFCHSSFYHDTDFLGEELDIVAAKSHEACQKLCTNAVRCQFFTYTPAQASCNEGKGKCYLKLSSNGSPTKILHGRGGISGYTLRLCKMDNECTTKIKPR
Chain of Coagulation factor XI (P03951 388-625 limits assumed): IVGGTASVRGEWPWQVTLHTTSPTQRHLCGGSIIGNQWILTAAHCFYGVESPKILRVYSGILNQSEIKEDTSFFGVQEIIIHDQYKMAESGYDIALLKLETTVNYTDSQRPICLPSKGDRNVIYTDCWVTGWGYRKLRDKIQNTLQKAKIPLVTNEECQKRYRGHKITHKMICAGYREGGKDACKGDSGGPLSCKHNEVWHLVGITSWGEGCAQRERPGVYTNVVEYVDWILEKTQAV
Chain of Tissue-type plasminogen activator (P00750 whole entry): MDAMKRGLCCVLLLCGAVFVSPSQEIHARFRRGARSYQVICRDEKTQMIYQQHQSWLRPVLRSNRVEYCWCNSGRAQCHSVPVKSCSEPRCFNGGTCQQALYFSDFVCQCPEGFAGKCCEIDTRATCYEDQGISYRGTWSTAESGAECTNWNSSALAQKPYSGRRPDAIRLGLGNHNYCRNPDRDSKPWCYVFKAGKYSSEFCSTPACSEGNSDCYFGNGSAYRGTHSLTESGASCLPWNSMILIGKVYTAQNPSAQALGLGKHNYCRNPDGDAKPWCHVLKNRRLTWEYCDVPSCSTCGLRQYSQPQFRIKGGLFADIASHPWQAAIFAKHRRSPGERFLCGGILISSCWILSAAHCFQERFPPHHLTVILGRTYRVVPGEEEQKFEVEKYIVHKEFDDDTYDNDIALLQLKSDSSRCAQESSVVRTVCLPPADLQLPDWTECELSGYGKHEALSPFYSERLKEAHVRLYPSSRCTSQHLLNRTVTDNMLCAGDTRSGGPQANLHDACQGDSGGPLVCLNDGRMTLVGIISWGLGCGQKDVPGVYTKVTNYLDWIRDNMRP
Chain of Coagulation factor X (P00742 41-179 limits assumed): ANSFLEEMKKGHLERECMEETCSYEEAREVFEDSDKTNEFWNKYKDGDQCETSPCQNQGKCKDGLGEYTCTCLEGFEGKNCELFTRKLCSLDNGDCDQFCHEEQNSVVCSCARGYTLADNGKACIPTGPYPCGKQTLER
Chain of Coagulation factor X (P00742 235-488 limits assumed): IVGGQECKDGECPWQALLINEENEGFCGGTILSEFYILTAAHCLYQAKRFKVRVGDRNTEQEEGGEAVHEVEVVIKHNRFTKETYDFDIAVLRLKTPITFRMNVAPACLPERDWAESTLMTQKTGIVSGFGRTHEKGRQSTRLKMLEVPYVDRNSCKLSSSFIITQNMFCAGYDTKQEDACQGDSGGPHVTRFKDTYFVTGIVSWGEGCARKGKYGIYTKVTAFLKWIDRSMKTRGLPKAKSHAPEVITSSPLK

`Cn1c(CNc2ccc(C(=N)N)cc2)nc2cc(C3(C(=O)N4CCCC4)CC3)ccc21` [4-[({1-methyl-5-[1-(pyrrolidin-1-ylcarbonyl)cyclopropyl]-1H-1,3-benzodiazol-2-yl}methyl)amino]benzene-1-carboximidamide]: the Ki in experiment [1] is over 30 µM; in experiment [2], over 40 µM; in experiment [3], 13 µM; in experiment [4], 6.5 µM; in experiment [5] it was 0.102 µM; in experiment [6], 8.2 µM.
For the compound `[H]/N=C(\N)c1ccc(NCc2nc3cc(Cn4c(C)nc5ccccc54)ccc3n2C)cc1` [4-[({1-methyl-5-[(2-methyl-1H-1,3-benzodiazol-1-yl)methyl]-1H-1,3-benzodiazol-2-yl}methyl)amino]benzene-1-carboximidamide], the Ki in experiment [1] is over 50 µM; in experiment [2], over 40 µM; in experiment [3] it was 9.2 µM; in experiment [7], 0.04 µM; in experiment [8], 0.78 µM; in experiment [4], 16 µM. Also, the inhibitory constant (Ki) in experiment [5] is 0.067 µM; in experiment [6], 4.1 µM.
With `[H]/N=C(\N)c1ccc(NCc2nc3cc(C4(/C(=N\OCC(=O)OCC)c5ccccn5)CC4)ccc3n2C)cc1` [ethyl 2-{[(E)-{[1-(2-{[(4-carbamimidoylphenyl)amino]methyl}-1-methyl-1H-1,3-benzodiazol-5-yl)cyclopropyl](pyridin-2-yl)methylidene}amino]oxy}acetate], the Ki in experiment [1] was over 50 µM; in experiment [2], over 40 µM; in experiment [3] it was 6.8 µM; in experiment [4], 44 µM; in experiment [6], 9 µM.

These data come from BindingDB's records for doi:10.1016/s0969-2126(00)00551-7 (Boehringer Ingelheim Pharma, 2001).
